Several values for one entry are separate records, joined by “and”; a condition that tells them apart may be missing. Equal values may be shown once. Where no end group is shown, it is not given here.
Legend:
[1] = test system: ET-1 induced MAPK phosphorylation in MC3T3.E1/J1 cells; assay: Inhibition of ET-1 induced MAPK phosphorylation in osteoblast cell line MC3T3.E1/J1 (western blot, densitometry); assay type: cell-based, mouse; conditions: Serum Free Media = 100.00
Protocol: The MC3T3. E1/J1 cell line was isolated from a parental cell line, MC3T3-E1 (available from Invitrogen), which had in turn been derived from newborn C57BL/6 mouse calvaria. The MC3T3 E1/J1 line is described as an osteoblastic line. To initiate the experiments described below, MC3T3.E1/J1 cells were plated at a density of 2.4×10^4 cells/well (24 well plates) in serum containing media and incubated for 48 hours. The cells were washed twice in PBS and re-incubated for approximately 17 hours in serum starvation media.
All media was then removed and the cells lysed and stored at −20° C. for electrophoresis/western blot, which localized phosphorylated MAPK and phosphorylated Akt probing with anti-phospho-p44/42 MAPK (Thr 202/204) and anti-Phospho AKT (Ser 473) antibodies (both commercially available from Cell Signalling Technology). The protein bands were quantitated by densitometry, and plotted as arbitrary densitometry units. Phosphorylated MAPK levels were normalised to total MAPK levels.

endothelin receptors = assay: Human forearm blood flow, vasoconstriction in response to infused ET-1; assay type: in vivo; conditions: healthy male subjects, single oral doses 10 mg and 30 mg, 2-4 hours post dosing; p=0.0210; evidence of a dose response
Source text: Human forearm blood flow can be assessed by temporarily impeding the venous drainage from the arm by the application of a pneumatic cuff on the upper arm, which is then inflated to just above venous pressure. The resulting arterial flow into the arm with no corresponding venous drainage leads to engorgement and swelling of the forearm, which can be detected with sensitive strain gauges. Infusion of the arterial vasoconstrictor ET-1 into the brachial artery leads to a reduction in forearm distension due to decreased arterial inflow. This vasoconstriction is mediated via endothelin receptors on the vascular endothelium and associated smooth muscle.

DU145 prostate tumour = assay: Inhibition of angiogenesis in primary tumours, intradermal DU145 tumour in nude mice; assay type: in vivo; conditions: 5 days, vs vehicle
Source text: (§1) A 1 cm^2 area with the tumour at the centre was examined and the number of blood vessels bifurcations within that area supplying the tumour were counted.

LOVO colon tumour = assay: Inhibition of angiogenesis in primary tumours, intradermal LOVO tumour in nude mice; assay type: in vivo; conditions: 5 days, vs vehicle
Source text: as §1

[2] = biological target: T1, Human recombinant ETB receptor (Homo sapiens, UniProt P24530); assay: Endothelin human receptor binding assay (125I-ET-1 competition), ETB; conditions: at a concentration of 10^-4 M, n=3
T1 construct: expressed in transfected cells; host or cells: mouse erythroleukaemic (MEL) cells, membrane preparation
T1 sequence (P24530 27-442): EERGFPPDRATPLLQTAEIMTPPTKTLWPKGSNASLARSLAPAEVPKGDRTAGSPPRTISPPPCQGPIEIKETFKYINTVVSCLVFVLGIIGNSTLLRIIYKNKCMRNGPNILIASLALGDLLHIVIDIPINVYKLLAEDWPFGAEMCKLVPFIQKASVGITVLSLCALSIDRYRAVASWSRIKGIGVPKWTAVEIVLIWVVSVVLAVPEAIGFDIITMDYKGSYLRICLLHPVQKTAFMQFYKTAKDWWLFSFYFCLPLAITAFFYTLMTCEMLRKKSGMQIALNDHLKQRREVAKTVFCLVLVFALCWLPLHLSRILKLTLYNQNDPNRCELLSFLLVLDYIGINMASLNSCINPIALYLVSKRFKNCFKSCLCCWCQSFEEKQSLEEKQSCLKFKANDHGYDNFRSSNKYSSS
Source text: 1) Endothelin Human Receptor Binding Assay

mean displacement at the ETB receptor [2] | Compound | Phosphorylated MAPK, Average ([1]; ET-1 100 nm alone, 3 minutes stimulation) | forearm blood flow in response to infused ET-1 compared to placebo (endothelin receptors) | Inhibition of vessel count (DU145 prostate tumour; 25 mg/kg once daily p.o.) | Inhibition of vessel count (DU145 prostate tumour; 50 mg/kg once daily p.o.) | Phosphorylated MAPK, Average ([1]; ET-1 100 nm + Compound (I) 0.1 μm, normalised to total MAPK) | Phosphorylated MAPK, Average ([1]; ET-1 100 nm + Compound (I) 1 μm, normalised to total MAPK) | Phosphorylated MAPK, Average ([1]; ET-1 100 nm + Compound (I) 10 μm, normalised to total MAPK) | Phosphorylated MAPK, Average ([1]; ET-1 100 nm + Compound (I) 20 μm, normalised to total MAPK) | Inhibition of vessel count (LOVO colon tumour; 25 mg/kg once daily p.o.) | Inhibition of vessel count (LOVO colon tumour; 50 mg/kg once daily p.o., 50 mg/kg)
– | ET-1: endogenous 21 amino acid peptide, endothelin isoform; used as stimulus and radioligand (CSCSSLMDKECVYFCHLDIIW; ends and bridges not checked; cysteine pairing not given here; UniProt P05305 53-73, looked up) [reference compound] | 312.78 arbitrary densitometry units and 369.85 arbitrary densitometry units | – | – | – | – | – | – | – | – | –
1.2±0.7% | COc1nc(C)cnc1NS(=O)(=O)c1cccnc1-c1ccc(-c2nnco2)cc1 [Compound (I), N-(3-methoxy-5-methylpyrazin-2-yl)-2-(4-[1,3,4-oxadiazol-2-yl]phenyl)pyridine-3-sulphonamide] | – | statistically significant reduction | 38% (P < 0.001) | 30% (P < 0.05) | 422.11 arbitrary densitometry units | 157.41 arbitrary densitometry units | 105.15 arbitrary densitometry units | 109.18 arbitrary densitometry units | 28% (P < 0.001) | 20% (P = 0.001) and 28% (P < 0.001)

— US7820679B2, “N-(-3-methoxy-5-methylpyrazin-2-yl)-2-(4-′1,3,4-oxadiazol-2-yl-phenyl)pyridine-3 sulphonamide as an anticancer agent” (AstraZeneca AB, priority 2002, dated 2010)
